Laboratory results taken from US20250011316A1, “PEROXIREDOXIN 3 INHIBITORS AND METHODS OF USE FOR TREATING CANCER” (Wake Forest University Health Sciences, priority 2022, published 2025).
pEC50: −log10 of the molar value. Converted amounts (≈) assume the structure as drawn.

Experiments:
purified human PRX3 = target: T1, purified human PRX3 (Homo sapiens, UniProt P30048); test: Biochemical PRX3 Inhibition Assay (non-reducible crosslink by SDS PAGE + single adduct by MALDI-TOF MS); details: 100 μM PRX3 with TRX2/thioredoxin reductase/NADPH system and hydrogen peroxide, 1-2 hr at 37° C.
T1 construct: made in house
T1 sequence (P30048 62-256): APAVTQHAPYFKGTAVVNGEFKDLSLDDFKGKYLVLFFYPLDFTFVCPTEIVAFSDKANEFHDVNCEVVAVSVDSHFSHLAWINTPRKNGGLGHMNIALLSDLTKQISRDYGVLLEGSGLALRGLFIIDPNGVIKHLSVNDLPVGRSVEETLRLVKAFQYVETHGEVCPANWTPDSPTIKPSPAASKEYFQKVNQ
Excerpt: The compounds described herein generally react with two essential cysteine residues in the mitochondrial peroxidase PRX3, leading to the formation of a non-reducible, covalent crosslink of two PRX3 monomers. This crosslink inactivates PRX3. Increased PRX3 crosslink is associated with mitochondrial stress, increased cell death in cell models of malignant mesothelioma and is associated with decreased tumor volume in a mouse model. Cunniff et al. (2015) PloS one 10, e0127310.
(§1) To test the activity of compounds, two complimentary assays were used as described below. The Biochemical PRX3 Inhibition Assay tests the ability of each compound to crosslink PRX3 in a simple, in vitro system. In the Cellular Activity Assay, we are testing the ability of compounds to kill SK—OV-3 ovarian cancer cells.
This assay tests the ability of each compound to form a covalent adduct with PRX3. The assay is performed as described in Nelson et al. (2021) Antioxidants (Basel) 10, 150; and Cunniff et al. (2015) PloS one 10, e0127310, and follows the appearance of non-reducible PRX3 crosslinks by SDS PAGE gel electrophoresis and follows the appearance of single PRX3 adducts by mass spectrometry. For this assay, purified human PRX3, hydrogen peroxide (the PRX3 substrate) and all the components required to enable PRX3 to catalytically cycle (thioredoxin-thioredoxin reductase-NAPDH system) are included (details below).
The biochemical PRX3 Inhibition assay contains 100 μM PRX3, 50 μM human TRX2, 0.5 μM mouse thioredoxin reductase, and a NADPH regenerating system composed of 3.2 mM glucose 6-phosphate, 3.2 U/ml glucose 6-phosphate dehydrogenase and 0.4 mM NADPH. Samples are incubated for 1-2 hr at 37° C. with either 0.2 mM TS (positive control), compounds or an equivalent volume of DMSO (negative control). During this incubation, hydrogen peroxide is added to induce turnover of PRX3. Reactions are stopped by the addition of a buffer containing 100 mM dithiothreitol (to break disulfide bonds) and SDS (detergent to denature proteins). NADPH, Glucose 6-Phosphate, and glucose 6-phosphate dehydrogenase were purchased from Sigma Aldrich. PRX3, thioredoxin, and thioredoxin reductase were all purified to >98% purity in the Lowther laboratory according to protocols referenced in Nelson et al. (2021) Antioxidants (Basel) 10, 150; and Cunniff et al. (2015) PloS one 10, e0127310.
To measure the amount of PRX3 crosslink, proteins in the reaction were separated by SDS-polyacrylamide gel electrophoresis and stained for total protein using GelCode Blue (Life Technologies). The amount of unmodified PRX3 and TS-PRX3 crosslink was measured by densiometric analysis of the signal for the PRX3 band running at the MW of a PRX3 crosslink (˜46 kDa) compared to the PRX3 signal at the MW of the un-modified PRX3 (−23 kD).
To measure covalent adduct formation on a single PRX3 monomer, each reaction was exchanged into a mass spectrometry compatible buffer containing 40 mM ammonium citrate, pH 8.3 made in HPLC water. Sample was mixed 1:1 with a matrix solution containing 30 mg/mL sinapinic acid in 70% (vol/vol) acetonitrile, 0.2% formic acid and spotted to onto the sample plate. PRX3 mass was measured by MALDI-TOF MS analysis on a Bruker Daltonics MALDI-TOF MS spectrometer. Spectra were analyzed in FLEXAnalysis Software. The intensity of the reduced PRX3 peak (SH) and intensity of the analog adduct peak was determined and corrected for background signal at the adduct peak in the DMSO control. The fraction of single analog adduct in the monomer peak was determined by dividing the intensity of the adduct peak by the summed intensity of the SH and adduct peaks.

Solubility Assay (HPLC) = format: physicochemical; details: HEPES/NaCl buffer, aqueous with cosolvent or surfactant or cyclodextrin, kinetic from dmso stock; 20 mM HEPES, 100 mM NaCl, pH 7.5, 18-24 hours at ambient temperature; read-out: Solubility
Method: A 20 mM stock solution was made for each compound in DMSO. To measure solubility, 0.03-0.05 mL of the stock was added to 0.27 mL 20 mM HEPES, 100 mM NaCl, pH 7.5. The solution was mixed and rotated 18-24 hours at ambient temperature. The next day, solutions were centrifuged for 10 min at 20,000×g at […] to remove insoluble, solid material. Next, 100 μL of the supernatant containing the soluble compound was added to 900 μL DMSO and High Performance Liquid Chromatography was performed as described in Table 1 and either HIPLC gradient 1 (Table 2) or HIPLC gradient 2 (Table 3). For each analog, a 200 μM standard and a 20 μM standard were prepared and run in parallel (standards were dissolved completely in […]). The amount ofLcompound in the experimental sample was calculated by comparing the area under the curve for compound peak to the area for the closest standard and correcting for dilution.

[1] = tested on: human SK—OV-3 ovarian cancer cells; test: Cellular Activity Assay (cytotoxicity, crystal violet); format: cell-based; details: Homo sapiens, SK—OV-3 cells, treated for 48 hr, 0.1-100 μM, crystal violet absorbance at 540 nm
Excerpt: as §1
The Cellular Activity Assay measures the EC50 of each compound in human SK—OV-3 ovarian cancer cells TS to be taken into the cell, transported to the mitochondria, and crosslink PRX3.
The cytotoxicity of compounds was measured as described in Nelson et al. (2021) Antioxidants (Basel) 10, 150; Cunniff et al. (2015) PloS one 10, e0127310; and Newick et al. (2012) PloS one 7, e39404. SK—OV-3 is an adherent, epithelial, adenocarcinoma cell line obtained from ATCC (ref #: HTB-77). SK—OV-3 cells are resistant to the commonly used chemotherapeutics, cis-platinum and doxorubicin. For this […], SK—OV-3 cells were plated in a 96-well plate. After 24 h recovery, the cells were treated for 48 hr with multiple concentrations of each compound ranging from 0.1-100 μM.
Cells were washed with PBS to remove dead cells and the remaining live cells were fixed with 3.0% formaldehyde and stained with 0.1% crystal violet. The amount of crystal violet was determined by reading the absorbance at 540 nm (crystal violet dye dissolved in 100% methanol) using a plate reader. The signal for crystal violet dye is proportional to the biomass of remaining live cells. GraphPad Prism9 software was used to calculate the effective inhibitory concentration (EC50) of test compounds. Results for each compound, are normalized to the amount of cells in control wells treated with the equivalent concentration of DMSO (negative control). TS or Compound 4 were included in each set of assays as a positive control.

Structure (SMILES) | PRX3 Inhibition (Crosslink + Mono-adduct) (purified human PRX3) | solubility (Solubility Assay (HPLC)) [µM] | pEC50 [1] | pEC50 ([1]; SK-OV-3, 48 h)
C=C(NC(=O)c1csc(N2CCN(C(=O)C3CCOCC3)CC2)n1)C(=O)NC(=C)C(=O)OC [Compound 59, Methyl 2-(2-(2-(4-(tetrahydro-2H-pyran-4-carbonyl)piperazin-1-yl)thiazole-4-carboxamido)acrylamido)acrylate] | +++ (>90%) | 100 to 1000 (≈ 47.8 to 478 µg/mL) | – | –
C=C(NC(=O)c1csc(N2CCC(CNC(=O)C3CCOCC3)CC2)n1)C(=O)NC(=C)C(=O)OC [Compound 52, methyl 2-(2-(2-(4-((tetrahydro-2H-pyran-4-carboxamido)methyl)piperidin-1-yl)thiazole-4-carboxamido)acrylamido)acrylate] | +++ (>90%) | < 100 | 4.60 to 5.00 | –
C=C(NC(=O)c1csc(N2CCN(C(=O)OC(C)(C)C)[C@@H](C)C2)n1)C(=O)NC(=C)C(=O)OC [Compound 57, Tert-butyl (S)-4-(4-((3-((3-methoxy-3-oxoprop-1-en-2-yl)amino)-3-oxoprop-1-en-2-yl)carbamoyl)thiazol-2-yl)-2-methylpiperazine-1-carboxylate] | +++ (>90%) | < 100 | 5.00 to 6.00 | –
C=C(NC(=O)c1csc(N2CCC(NC(=O)CC3CCOCC3)CC2)n1)C(=O)NC(=C)C(=O)OC [Compound 51, Methyl 2-(2-(2-(4-(2-(tetrahydro-2H-pyran-4-yl)acetamido)piperidin-1-yl)thiazole-4-carboxamido)acrylamido)acrylate] | +++ (>90%) | < 100 | – | –
C=C(NC(=O)c1csc(N2CCC(NC(=O)COC)CC2)n1)C(=O)NC(=C)C(=O)OC [Compound 55, Methyl 2-(2-(2-(4-(2-methoxyacetamido)piperidin-1-yl)thiazole-4-carboxamido)acrylamido)acrylate] | ++ (50-90%) | < 100 | – | 4.60 to 5.00
C=C(NC(=O)c1csc(-c2cccc(CNC(=O)OC(C)(C)C)c2)n1)C(=O)NC(=C)C(=O)OC [Compound 43, Methyl 2-(2-(2-(3-(((tert-butoxycarbonyl)amino)methyl)phenyl)thiazole-4-carboxamido)acrylamido)acrylate] | +++ (>90%) | < 100 | 5.00 to 6.00 | –
C=C(NC(=O)c1csc(N2CCC(NC(=O)C3CCOCC3)CC2)n1)C(=O)NC(=C)C(=O)OC [Compound 46, Methyl 2-(2-(2-(4-(tetrahydro-2H-pyran-4-carboxamido)piperidin-1-yl)thiazole-4-carboxamido)acrylamido)acrylate] | +++ (>90%) | 100 to 1000 (≈ 49.2 to 492 µg/mL) | 5.00 to 6.00 | –
C=C(NC(=O)c1csc(-c2ccc(CNC(=O)CCNC(=O)OC(C)(C)C)cc2)n1)C(=O)NC(=C)C(=O)OC [Compound 38, Methyl 2-(2-(2-(4-((3-((tert-butoxycarbonyl)amino)propanamido)methyl)phenyl)thiazole-4-carboxamido)acrylamido)acrylate] | ++ (50-90%) | < 100 | 5.00 to 6.00 | –
C=C(NC(=O)c1csc(-c2ccc(CNC(=O)C3CCOCC3)cc2)n1)C(=O)NC(=C)C(=O)OC [Compound 36, Methyl 2-(2-(2-(4-((tetrahydro-2H-pyran-4-carboxamido)methyl)phenyl)thiazole-4-carboxamido)acrylamido)acrylate] | +++ (>90%) | < 100 | 5.00 to 6.00 | –
C=C(NC(=O)c1csc(N2CCC(C(=O)NC3CCOCC3)CC2)n1)C(=O)NC(=C)C(=O)OC [Compound 53, Methyl 2-(2-(2-(4-((tetrahydro-2H-pyran-4-yl)carbamoyl)piperidin-1-yl)thiazole-4-carboxamido)acrylamido)acrylate] | +++ (>90%) | < 100 | 4.60 to 5.00 | –
C=C(NC(=O)c1csc(-c2ccc(CNC(=O)COCCOC)cc2)n1)C(=O)NC(=C)C(=O)OC [Compound 35, Methyl 2-(2-(2-(4-((2-(2-methoxyethoxy)acetamido)methyl)phenyl)thiazole-4-carboxamido)acrylamido)acrylate] | +++ (>90%) | 100 to 1000 (≈ 50.3 to 503 µg/mL) | 5.00 to 6.00 | –
C=C(NC(=O)c1csc(-c2ccc(CNC(=O)CCCCCN=[N+]=[N-])cc2)n1)C(=O)NC(=C)C(=O)OC [Compound 39, Methyl 2-(2-(2-(4-((6-azidohexanamido)methyl)phenyl)thiazole-4-carboxamido)acrylamido)acrylate] | ++ (50-90%) | < 100 | 5.00 to 6.00 | –
C=C(NC(=O)c1csc(N2CCN(C(=O)OC(C)(C)C)[C@H](C)C2)n1)C(=O)NC(=C)C(=O)OC [Compound 60, Tert-butyl (R)-4-(4-((3-((3-methoxy-3-oxoprop-1-en-2-yl)amino)-3-oxoprop-1-en-2-yl)carbamoyl)thiazol-2-yl)-2-methylpiperazine-1-carboxylate] | +++ (>90%) | < 100 | – | –
C=C(NC(=O)c1csc(N2CCC(NC(=O)C3COCCO3)CC2)n1)C(=O)NC(=C)C(=O)OC (centres unmarked) [Compound 58, Methyl 2-(2-(2-(4-(1,4-dioxane-2-carboxamido)piperidin-1-yl)thiazole-4-carboxamido)acrylamido)acrylate] | +++ (>90%) | 100 to 1000 (≈ 49.4 to 494 µg/mL) | – | –
